Assay results from the supplement of paper PMC10627819.

What was measured:
[1] = system: S. aureus DSM 20231; assay: Bliss interaction score (quartile over a dose matrix) (fitness difference); higher = more antagonism (negative = synergy)
Summary of the method: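 Fitness was OD595 at entry into stationary phase divided by the plate's robust no-drug mean and capped at 1; single-drug fitness was inferred from combination data. The Bliss score is observed minus expected (product) fitness, summarised by quartiles over technical, biological and donor/recipient replicates.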

[2] = system: B. subtilis 168; assay: fitness (endpoint OD595 vs no drug) (fraction); higher = more growth
Summary of the method: (§1)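 In 384-well plates at 37 °C, cultures began at OD595 0.01 in 30 µl, with 55 µl used for S. pneumoniae. OD595 readings every 30 min for 14 h were corrected by the first reading. Fitness divides the stationary-phase transition optical density by the robust mean of no-drug control wells. The result is capped at 1.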

[3] = system: S. aureus DSM 20231; assay: as above
Summary of the method: as §1

[4] = system: S. aureus Newman; assay: as above
Summary of the method: as §1

[5] = first compound 0.375 µg/mL, partner 0.15 µg/mL
[6] = first compound 0.375 µg/mL, partner 0.3 µg/mL
[7] = first compound 0.375 µg/mL, partner 0.6 µg/mL
[8] = first compound 0.75 µg/mL, partner 0.15 µg/mL
[9] = first compound 0.75 µg/mL, partner 0.3 µg/mL
[10] = first compound 0.75 µg/mL, partner 0.6 µg/mL
[11] = first compound 1.5 µg/mL, partner 0.15 µg/mL
[12] = first compound 1.5 µg/mL, partner 0.3 µg/mL
[13] = first compound 1.5 µg/mL, partner 0.6 µg/mL
[14] = first compound 0.375 µg/mL, partner 0.625 µg/mL
[15] = first compound 0.375 µg/mL, partner 1.25 µg/mL
[16] = first compound 0.375 µg/mL, partner 2.5 µg/mL
[17] = first compound 0.75 µg/mL, partner 0.625 µg/mL
[18] = first compound 0.75 µg/mL, partner 1.25 µg/mL
[19] = first compound 0.75 µg/mL, partner 2.5 µg/mL
[20] = first compound 1.5 µg/mL, partner 0.625 µg/mL
[21] = first compound 1.5 µg/mL, partner 1.25 µg/mL
[22] = first compound 1.5 µg/mL, partner 2.5 µg/mL
[23] = first compound 0.375 µg/mL, partner 1 µg/mL
[24] = first compound 0.375 µg/mL, partner 2 µg/mL
[25] = first compound 0.375 µg/mL, partner 4 µg/mL
[26] = first compound 0.75 µg/mL, partner 1 µg/mL
[27] = first compound 0.75 µg/mL, partner 2 µg/mL
[28] = first compound 0.75 µg/mL, partner 4 µg/mL
[29] = first compound 1.5 µg/mL, partner 1 µg/mL
[30] = first compound 1.5 µg/mL, partner 2 µg/mL
[31] = first compound 1.5 µg/mL, partner 4 µg/mL
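Throughout, for Bliss interaction score (quartile over a dose matrix): first quartile when negative (synergy) and third quartile when positive (antagonism).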

N[C@@H]1CONC1=O [CycloserineD] + O=C(O)c1cc(-c2ccc(F)cc2F)ccc1O [Diflunisal]
Bliss interaction score [1]: -0.151

CCN(CC)CCOc1ccc(C(=C(Cl)c2ccccc2)c2ccccc2)cc1 [Clomiphene] + CCC(C)C1C(=O)NC(=C)C(=O)NC(C(=O)NC(CSCC(C(=O)N1)NC(=O)/C(=C/C)/NC(=O)C(C(C)CC)N)C(=O)NC2C(SCC(NC(=O)CNC(=O)C3CCCN3C2=O)C(=O)NC(CCCCN)C(=O)NC4C(SCC(NC(=O)CNC(=O)C(NC(=O)C(NC(=O)C(NC(=O)CNC4=O)C)CC(C)C)CCSC)C(=O)NC(CC(=O)N)C(=O)NC(CCSC)C(=O)NC(CCCCN)C(=O)NC5C(SCC6C(=O)NC(C(=O)NC(CSC(C(C(=O)N6)NC(=O)C(NC5=O)C)C)C(=O)NC(CO)C(=O)NC(C(C)CC)C(=O)NC(CC7=CN=CN7)C(=O)NC(C(C)C)C(=O)NC(=C)C(=O)NC(CCCCN)C(=O)O)CC8=CN=CN8)C)C)C)CC(C)C [Nisin]
Bliss interaction score ([1]; main component drawn): -0.384

N[C@@H]1CONC1=O [Cycloserine D] + CN(N=O)C(=O)N[C@@H](C=O)[C@@H](O)[C@H](O)[C@H](O)CO [Streptozotocin]
fitness ([2]; first compound 0.125 µg/mL, partner 0.15 µg/mL): 0.991 | fitness ([2]; first compound 0.125 µg/mL, partner 0.3 µg/mL): 0.963 | fitness ([2]; first compound 0.125 µg/mL, partner 0.6 µg/mL): 0.984 | fitness ([2]; first compound 0.25 µg/mL, partner 0.15 µg/mL): 0.979 | fitness ([2]; first compound 0.25 µg/mL, partner 0.3 µg/mL): 0.98 | fitness ([2]; first compound 0.25 µg/mL, partner 0.6 µg/mL): 0.988 | fitness ([2]; first compound 0.5 µg/mL, partner 0.15 µg/mL): 0.975 | fitness ([2]; first compound 0.5 µg/mL, partner 0.3 µg/mL): 0.931 | fitness ([2]; first compound 0.5 µg/mL, partner 0.6 µg/mL): 0.958 | fitness [3, 5]: 0.822 | fitness [3, 6]: 0.867 | fitness [3, 7]: 0.609 | fitness [3, 8]: 0.823 | fitness [3, 9]: 0.846 | fitness [3, 10]: 0.649 | fitness [3, 11]: 0.788 | fitness [3, 12]: 0.806 | fitness [3, 13]: 0.655 | fitness [4, 5]: 0.833 | fitness [4, 6]: 0.665 | fitness [4, 7]: 0.607 | fitness [4, 8]: 0.762 | fitness [4, 9]: 0.674 | fitness [4, 10]: 0.512 | fitness [4, 11]: 0.741 | fitness [4, 12]: 0.674 | fitness [4, 13]: 0.584

N[C@@H]1CONC1=O [Cycloserine D] + Cc1ncc([N+](=O)[O-])n1CCO [Metronidazole]
fitness ([2]; first compound 0.125 µg/mL, partner 0.625 µg/mL): 0.948 | fitness ([2]; first compound 0.125 µg/mL, partner 1.25 µg/mL): 0.913 | fitness ([2]; first compound 0.125 µg/mL, partner 2.5 µg/mL): 0.937 | fitness ([2]; first compound 0.25 µg/mL, partner 1.25 µg/mL): 0.841 | fitness ([2]; first compound 0.25 µg/mL, partner 2.5 µg/mL): 0.868 | fitness ([2]; first compound 0.5 µg/mL, partner 0.625 µg/mL): 0.933 | fitness ([2]; first compound 0.5 µg/mL, partner 1.25 µg/mL): 0.921 | fitness ([2]; first compound 0.5 µg/mL, partner 2.5 µg/mL): 0.973 | fitness [3, 14]: ≥ 1 | fitness [3, 15]: ≥ 1 | fitness [3, 16]: ≥ 1 | fitness [3, 17]: ≥ 1 | fitness [3, 18]: ≥ 1 | fitness [3, 19]: ≥ 1 | fitness [3, 20]: ≥ 1 | fitness [3, 21]: ≥ 1 | fitness [3, 22]: ≥ 1 | fitness [4, 14]: 0.969 | fitness ([4]; first compound 0.375 µg/mL, partner 0.781 µg/mL): 0.959 | fitness [4, 15]: ≥ 1 | fitness ([4]; first compound 0.375 µg/mL, partner 1.562 µg/mL): 0.976 | fitness [4, 16]: 0.97 | fitness ([4]; first compound 0.375 µg/mL, partner 3.124 µg/mL): 0.985 | fitness [4, 17]: 0.929 | fitness ([4]; first compound 0.75 µg/mL, partner 0.781 µg/mL): ≥ 1 | fitness [4, 18]: ≥ 1 | fitness ([4]; first compound 0.75 µg/mL, partner 1.562 µg/mL): 0.972 | fitness [4, 19]: 0.961 | fitness ([4]; first compound 0.75 µg/mL, partner 3.124 µg/mL): 0.988 | fitness [4, 20]: 0.912 | fitness ([4]; first compound 1.5 µg/mL, partner 0.781 µg/mL): ≥ 1 | fitness [4, 21]: 0.964 | fitness ([4]; first compound 1.5 µg/mL, partner 1.562 µg/mL): 0.974 | fitness [4, 22]: 0.972 | fitness ([4]; first compound 1.5 µg/mL, partner 3.124 µg/mL): ≥ 1

N[C@@H]1CONC1=O [Cycloserine D] + Cc1cc(NS(=O)(=O)c2ccc(N)cc2)no1 [Sulfamethoxazol]
fitness ([2]; first compound 0.125 µg/mL, partner 0.5 µg/mL, one replicate): 0.939 | fitness ([2]; first compound 0.125 µg/mL, partner 1 µg/mL): 0.941 | fitness ([2]; first compound 0.125 µg/mL, partner 2 µg/mL): 0.869 | fitness ([2]; first compound 0.125 µg/mL, partner 4 µg/mL): 0.951 | fitness ([2]; first compound 0.25 µg/mL, partner 0.5 µg/mL, one replicate): 0.993 | fitness ([2]; first compound 0.25 µg/mL, partner 1 µg/mL): 0.933 | fitness ([2]; first compound 0.25 µg/mL, partner 2 µg/mL): 0.896 | fitness ([2]; first compound 0.25 µg/mL, partner 4 µg/mL): 0.931 | fitness ([2]; first compound 0.5 µg/mL, partner 0.5 µg/mL, one replicate): 0.977 | fitness ([2]; first compound 0.5 µg/mL, partner 1 µg/mL): 0.868 | fitness ([2]; first compound 0.5 µg/mL, partner 2 µg/mL): 0.929 | fitness ([2]; first compound 0.5 µg/mL, partner 4 µg/mL): ≥ 1 | fitness [3, 23]: ≥ 1 | fitness [3, 24]: ≥ 1 | fitness [3, 25]: ≥ 1 | fitness [3, 26]: ≥ 1 | fitness [3, 27]: 0.913 | fitness [3, 28]: 0.929 | fitness [3, 29]: 0.93 | fitness [3, 30]: 0.982 | fitness [3, 31]: ≥ 1 | fitness [4, 23]: 0.997 | fitness [4, 24]: ≥ 1 | fitness [4, 25]: ≥ 1 | fitness ([4]; first compound 0.375 µg/mL, partner 8 µg/mL, one replicate): ≥ 1 | fitness [4, 26]: 0.979 | fitness [4, 27]: ≥ 1 | fitness [4, 28]: ≥ 1 | fitness ([4]; first compound 0.75 µg/mL, partner 8 µg/mL, one replicate): ≥ 1 | fitness [4, 29]: 0.949 | fitness [4, 30]: ≥ 1 | fitness [4, 31]: ≥ 1 | fitness ([4]; first compound 1.5 µg/mL, partner 8 µg/mL, one replicate): ≥ 1
